Here are results for four compounds from patent US4186202A, “Phenyl-pyridylamine derivatives” (priority 1974, dated 1980).

Structures can show the parent of a compound that is named as a salt.

The subject of experiment [1] is uptake of 3H-noradrenaline. Briefly: Inhibition of uptake of 3H-noradrenaline in mouse midbrain slices after in vivo (i.p.) administration. To be noted: ip, at the dose 101 μmole/kg i.p., read-out: inhibition recorded (uptake of 3H-NA, in vivo). As for the experimental part: It is not possible by experimental means to induce depressions in laboratory animals. In order to evaluate a possible anti-depressive effect of new substances biochemical-pharmacological test methods must be resorted to. One such method, which seems to give a good indication of the potential anti-depressive effects of the test substances, is described in Europ. […] The test substances were administered intraperitoneally half an hour before the animals were killed. […] The incubation time was 5 minutes with 5 minutes of preincubation before the labelled amines were added. The slices were dissolved in Soluene® and the amounts of radio-active amines taken up were determined by liquid scintillation. […] Active uptake is defined as that part of the radioactive uptake which is inhibited by a high concentration of cocaine.

For experiment [2], the system named is uptake of 14C-5-hydroxytryptamine. Briefly: Inhibition of uptake of 14C-5-HT in mouse midbrain slices after in vivo (i.p.) administration. To be noted: i.p. half an hour before killing, dose producing 50 percent decrease of active uptake; for ED50: Mus musculus, ip, 0.5 h. As for the experimental part:
(§1) It is not possible by experimental means to induce depressions in laboratory animals. In order to evaluate a possible anti-depressive effect of new substances biochemical-pharmacological test methods must be resorted to. One such method, which seems to give a good indication of the potential anti-depressive effects of the test substances, is described in Europ.
(§2) The test substances were administered intraperitoneally half an hour before the animals were killed. […] The incubation time was 5 minutes with 5 minutes of preincubation before the labelled amines were added. The slices were dissolved in Soluene® and the amounts of radio-active amines taken up were determined by liquid scintillation. […] Active uptake is defined as that part of the radioactive uptake which is inhibited by a high concentration of cocaine.

Experiment [3] shares this test system. Briefly: Inhibition of uptake of 14C-5-HT in mouse midbrain slices, in vitro. In kind it is biochemical. To be noted: 5 minutes preincubation, 5 minutes incubation. As for the experimental part:
as §1, §2
In the in vitro method, slices of mouse midbrain were preincubated for 5 minutes with a solution of the compound to be tested and then incubated as described above.

The conditions of experiment [4]: in vivo; cited from earlier work.

Broadly, the inhibition is the relative decrease from the control value, in per cent. The EC50 is the concentration giving half of the maximal effect. A lower EC50 goes with a more potent agent. A word on the ED50: it is the dose that gives a 50% effect, or the effect in half of the subjects. Read a high ED50 as weaker potency.

Take `CNC/C=C(/c1ccc(Br)cc1)c1cccnc1` [H, Z, hydrochloride, 3-(4-bromophenyl)-N-methyl-3-(3-pyridyl)-allylamine]: in experiment [1], the inhibition at 101 µmol/kg came out at 38%. In addition, the “Uptake of 14C-5-HT, in vivo ED50” value in experiment [2] (30 min) came to 15.2 μmole/kg i.p.

The compound `CNC/C=C(/c1ccc(Br)cc1)c1cccnc1` [H, Z, oxalate, 3-(4-bromophenyl)-N-methyl-3-(3-pyridyl)-allylamine] registered an EC50 in experiment [3] of 500 nM. In experiment [2], the ED50 is 18 µmol/kg.

In turn, `CNCC=C(c1ccc(Br)cc1)c1cccnc1` [H, mixture, oxalate, 3-(4-bromophenyl)-N-methyl-3-(3-pyridyl)-allylamine] showed an EC50 in experiment [3] of 500 nM. Besides, in experiment [2], the 50% effect level (ED50) was put at a dose of 32 µmol/kg.

On to `CN(C)CC=C(c1ccccc1)c1ccccc1`, for which the “antidepressive effect” value in experiment [4] is listed as “have an antidepressive effect”.
